Earlier results on 12 molecules are cited in patent US20090162488A1, “BEVERAGE PRODUCTS AND FLAVOR SYSTEMS HAVING A NON-SWEETENING AMOUNT OF MONATIN” (The Concentrate Manufacturing Company of Ireland, priority 2007, published 2009).

Molecules are shown by their SMILES. Peptide text beside a SMILES is read from it.

For this data set the following is noted: for potency figures: times as sweet as sugar: commonly accepted potency figures, weight basis versus sugar.

As for `CC1=CC(=O)NS(=O)(=O)O1` [Acesulfame-K], the “potency figures: times as sweet as sugar” value is on record as 200 times as sweet as sugar.
Regarding `C[C@@H](NC(=O)[C@@H](N)CC(=O)O)C(=O)NC1C(C)(C)SC1(C)C` [Alitame], the “potency figures: times as sweet as sugar” value was 2,000 times as sweet as sugar.
On to `COC(=O)[C@H](Cc1ccccc1)NC(=O)[C@@H](N)CC(=O)O` [Aspartame] (H-Asp-Phe-OMe), for which the “potency figures: times as sweet as sugar” value was 200 times as sweet as sugar.
For the molecule `CC1(C)[C@@H](O[C@H]2O[C@H](C(=O)O)[C@@H](O)[C@H](O)[C@H]2O[C@@H]2O[C@H](C(=O)O)[C@@H](O)[C@H](O)[C@H]2O)CC[C@]2(C)[C@H]3C(=O)C=C4[C@@H]5C[C@@](C)(C(=O)O)CC[C@]5(C)CC[C@@]4(C)[C@]3(C)CC[C@@H]12` [Glycyrrhizin], the “potency figures: times as sweet as sugar” value is 30-50 times as sweet as sugar.
Turning to `C[C@H](CC[C@@H](O[C@@H]1O[C@H](CO[C@@H]2O[C@H](CO)[C@@H](O)[C@H](O)[C@H]2O)[C@@H](O)[C@H](O)[C@H]1O[C@@H]1O[C@H](CO)[C@@H](O)[C@H](O)[C@H]1O)C(C)(C)O)[C@H]1CC[C@@]2(C)[C@@H]3CC=C4[C@@H](CC[C@H](O[C@@H]5O[C@H](CO[C@@H]6O[C@H](CO)[C@@H](O)[C@H](O)[C@H]6O)[C@@H](O)[C@H](O)[C@H]5O)C4(C)C)[C@]3(C)[C@H](O)C[C@]12C` [Mogroside V], the “potency figures: times as sweet as sugar” value is reported as 100-300 times as sweet as sugar.
With `NC(CC(O)(Cc1c[nH]c2ccccc12)C(=O)O)C(=O)O` (stereo not drawn) [Monatin, 2-hydroxy-2-(indol-3-lymethyl)-4-aminoglutaric acid], the sweetness potency result (versus sugar (i.e., sucrose)) was “about 2000 times as sweet as sugar”.
Take `COc1ccc(CCC(=O)c2c(O)cc(O[C@@H]3O[C@H](CO)[C@@H](O)[C@H](O)[C@H]3O[C@@H]3O[C@@H](C)[C@H](O)[C@@H](O)[C@H]3O)cc2O)cc1O` [Neohesperidin dihydrochalcone]: the “potency figures: times as sweet as sugar” value was 300 times as sweet as sugar.
On to `COC(=O)[C@H](Cc1ccccc1)NC(=O)[C@H](CC(=O)O)NCCC(C)(C)C` [Neotame], for which the “potency figures: times as sweet as sugar” value is 8,000 times as sweet as sugar.
In the case of `C=C1C[C@@]23CC[C@H]4[C@@](C)(CCC[C@@]4(C)C(=O)O[C@@H]4O[C@H](CO)[C@@H](O)[C@H](O)[C@H]4O)[C@@H]2CC[C@]1(O[C@@H]1O[C@H](CO)[C@@H](O)[C@H](O[C@@H]2O[C@H](CO)[C@@H](O)[C@H](O)[C@H]2O)[C@H]1O[C@@H]1O[C@H](CO)[C@@H](O)[C@H](O)[C@H]1O)C3` [Rebaudioside A], the “potency figures: times as sweet as sugar” value was 150-300 times as sweet as sugar.
Take `O=C1NS(=O)(=O)c2ccccc21` [Saccharin]: the “potency figures: times as sweet as sugar” value is 300 times as sweet as sugar.
As for `C=C1C[C@@]23CC[C@H]4[C@@](C)(CCC[C@@]4(C)C(=O)O[C@@H]4O[C@H](CO)[C@@H](O)[C@H](O)[C@H]4O)[C@@H]2CC[C@]1(O[C@@H]1O[C@H](CO)[C@@H](O)[C@H](O)[C@H]1O[C@@H]1O[C@H](CO)[C@@H](O)[C@H](O)[C@H]1O)C3` [Stevioside], the “potency figures: times as sweet as sugar” value is given as 100-250 times as sweet as sugar.
Consider `OC[C@H]1O[C@H](O[C@]2(CCl)O[C@H](CCl)[C@@H](O)[C@@H]2O)[C@H](O)[C@@H](O)[C@H]1Cl` [Sucralose], for which the “potency figures: times as sweet as sugar” value is reported as 600 times as sweet as sugar.
